Experimental data published in paper PMC6266789 (Viruses, 2018).

Tested on: NA of pH1N1 influenza virus recovered from lungs of IS mice
Format: biochemical, influenza A(H1N1)pdm09

CCOC(=O)C1=C[C@@H](OC(CC)CC)[C@H](NC(C)=O)[C@@H](N)C1 [Oseltamivir, oseltamivir]
oseltamivir resistance phenotype associated with H275Y by NAI assay: not detected
